Reference: US20230095199A1, “DIMETHYL SULFOXIDE (DMSO) FORMULATIONS FOR TREATING AUTISM” (Abela Pharmaceuticals, Inc., priority 2010, published 2023)
Entries after “also recorded” stand apart in the source; their conditions may differ.

System: patient, diagnosed with an autism spectrum disorder
Test: Case treatment of a patient with autism spectrum disorder with oral MSM and/or DMSO
Assay type: in vivo
Procedure: A patient, diagnosed with an autism spectrum disorder, was treated with a combination of MSM and DMSO, beginning. […] In some embodiments, combination of MSM and DMSO unexpectedly improve one or more symptoms associated with autism, as compared to administration of MSM or DMSO individually. In several embodiments, in addition to the beneficial therapeutic effects, the combination of MSM and DMSO reduces one or more of the side effects typically associated with DMSO administration (e.g., odor, gastrointestinal distress). In some embodiments, these unexpected effects are the result of the continued (e.g., daily) administration of MSM/DMSO, while in other embodiments, these effects are long-term (e.g., persist beyond the period of continued administration of MSM/DMSO). Moreover, in certain embodiments, combinations of MSM and DMSO result in synergistic therapeutic effects for one or more of the symptoms of autism. In some embodiments, these synergistic effects are the result of the continued (e.g., daily) administration of MSM/DMSO, while in other embodiments, these effects are long-term (e.g., persist beyond the period of continued administration of MSM/DMSO).
The patient's symptoms include stimming, nighttime stimming, hyperactive gag reflex, impaired social interaction, a lack of vocalization and communication, delayed success with toilet training, and constipation. DMSO/MSM treatment was initiated for patient. The patient was treated with 4.7 grams of oral MSM solution daily (4½ teaspoons daily of a 15% solution). […] The patient was also treated with 4.7 grams of MSM and 0.025 grams of DMSO in an oral solution (4½ teaspoons daily of 15% MSM and 0.1% DMSO).
The patient was also treated with two short term bolus treatments with increased amounts of DMSO. In addition to the 4.7 g of MSM and 0.025 g of DMSO in an oral solution, the patient received an additional 4.8 g/day of DMSO for a short duration of 10 days (1 teaspoon, 90% oral solution). […] The patient's chronic constipation was also eliminated during these treatment cycles of higher doses of DMSO.
The patient was further treated with an oral formulation comprising 4.7 g of MSM and […] of DMSO. Improvements in communication, social interaction, and constipation continued at this dosage.

[1] = additional 4.8 g/day DMSO (90% oral solution) for 10 days on top of 4.7 g MSM and 0.025 g DMSO
[2] = after one month of 4.7 g MSM daily

Row | Structure (SMILES) | ability to vocalize [1] | chronic constipation [1] | different words vocalized during a session (larger dose of DMSO for 10 days in addition to normal treatment) | frequency of nightly stimming (4.7 g MSM daily (15% solution)) | time until improvement of stimming was noted (4.7 g MSM daily (15% solution)) [weeks] | reduction of daytime stimming (4.7 g oral MSM daily (15% solution)) | incidents of hyperactive gag reflex (4.7 g oral MSM daily (15% solution), within 12 weeks) | reduction of stimming (especially night-time stimming) (4.7 g oral MSM daily (15% solution, 4½ teaspoons), within 12 weeks) | signs known [2] | time engaged in an activity [2] [min] | vocalization [2]
1 | C[S+](C)[O-] [DMSO, Dimethyl sulfoxide] | improved dramatically | eliminated; also recorded: vastly improved | six |  |  |  |  |  |  |  | 
2 | CS(C)(=O)=O [MSM, Methylsulfonylmethane] |  |  |  | reduced from every night to once every two or three weeks | ≤ 12 | about 80% | reduced from multiple times per day to only a few times per month | about 90% | gained an additional sign | 8 to 10 | became more vocal
